Literature values as cited in patent publication US20090317464A1, “METHODS AND COMPOSITIONS FOR PRODUCING ANTI-ANDROGENIC EFFECTS” (PANACEA BIOTEC LTD., priority 2006, published 2009).

- steady state concentration (Css) versus dose (daily administration to patients, above 300 mg, studied at 450 and 600 mg dose): no further increase in Css is observed
- half life (in vivo): approximately 5.8 days
- time to peak plasma concentration (in vivo): about 31 hours
SMILES: CC(O)(CS(=O)(=O)c1ccc(F)cc1)C(=O)Nc1ccc(C#N)c(C(F)(F)F)c1 (stereo not drawn) [Bicalutamide, 4-cyano-3-trifluoromethyl-N-(3-p-fluorophenylsulphony 1-2-hydroxy-2-methylpropionyl) aniline]
